Measured values published in patent US12234211B2, “Cycloolefin substituted heteroaromatic compounds and their use” (HUTCHISON MEDIPHARMA LIMITED, priority 2017, dated 2025).

What was measured:
[1] = target: T1, IDH1-R132H (Homo sapiens, UniProt O75874, R132H); experiment: Fluorescent determination of IDH1-R132H cell activity (2-HG in U87MGR132H cells); format: cell-based; conditions: 2-HG inhibition in U87MGR132H cells transfected with IDH1-R132H mutant plasmid
T1 construct: expressed in transfected cells; host or cells: U87MG cells (U87MGR132H)

[2] = Metabolic stability test in liver microsomes (mouse); format: in vitro ADME; conditions: percentage of remaining compound after incubation for 30 minutes vs 0 minute; 1 μM compound; 0.5 mg/mL liver microsomes; 37° C.
Protocol: (§1) Male CD1 mouse liver microsomes was supplied by Research Institute for Liver Diseases (Shanghai) Co., Ltd. Male SD rat liver microsomes was supplied by BioreclamationIVT in US.
(§2) Phenacetin, glucose-6-phosphate (G-6-P), glucose-6-phosphate dehydrogenase (G-6-PD), and nicotinamide adenine dinucleotide phosphate (NADP) were supplied by Sigma-Aldrich (Missouri, USA).
(§3) 10 mM stock solution of test compound: Certain amount of test compound was weighed and dissolved in certain volume of dimethylsulfoxide (DMSO) to get the stock solution of test compound at 10 mM.
(§4) Reaction termination solution: Certain amount of phenacetin as internal standard was weighed and dissolved in acetonitrile to get the reaction termination solution at 1000 ng/mL, and stored at room temperature for use.
(§5) The stock solution of test compound was diluted to the designated concentration with organic solution (usually the mixtures of acetonitrile, methanol and water with different portions depending on the compound solution) to make the final concentration to be 1 μM and the contents of organic solvents no more than 1% (For DMSO, the controlled margin was 0.1%) in the final incubation system. 100 mM NADP, 500 mM G-6-P and 100 U/mL G-6-PDH were mixed and diluted with ultrapure water to provide the NADPH regenerating system containing 1 mM NADP, 5 mM G-6-P and 1 U/mL G-6-PD, which was pre-incubated at 37° C. water-bath for 10 min and then cooled on ice until being added into the reaction system. 20 mg/mL liver microsomes was mixed with 200 mM PBS and diluted with ultrapure water to make the concentrations of liver microsomes and PBS to be 0.5 mg/mL and 50 mM in the final incubation system, respectively. After the diluted liver microsomes was mixed with the NADPH regenerating solution, certain volumes of 100 mM EDTA and 300 mM MgCl2 (concentration of EDTA and MgCl2 in the final incubation system is 1 mM and 3 mM, respectively) were added, and the incubation system was put into 37° C. water bath. The incubation was commenced by adding the stock solution of test compound and maintained for 30 min. The incubation was terminated by adding the reaction termination solution. The 0 min sample was prepared by adding the reaction termination solution to the incubation system immediately prior to putting the system into the water bath with the addition of the stock solution of test compound. The terminated incubation mixtures were vortexed and centrifuged at 4400 rpm for 10 min, and the supernatant was collected for LC-MS/MS analysis.
(§6) The concentration of test compound was determined using LC-MS/MS method. Using the peak area ratio of the compound and the internal standard as an index, the percentage of remaining compound after incubation for 30 minutes as compared with the 0 minute sample was calculated, and the metabolic stability of the compound was evaluated.

[3] = target: T2, IDH2-R140Q (Homo sapiens, UniProt P48735, R140Q); experiment: Fluorescent determination of IDH2-R140Q cell activity (2-HG in U87MGR140Q cells); format: cell-based; conditions: 72 hours incubation, read-out: IC50 (2-HG inhibition)
T2 construct: expressed in transfected cells
T2 sequence (P48735 40-452 R140Q): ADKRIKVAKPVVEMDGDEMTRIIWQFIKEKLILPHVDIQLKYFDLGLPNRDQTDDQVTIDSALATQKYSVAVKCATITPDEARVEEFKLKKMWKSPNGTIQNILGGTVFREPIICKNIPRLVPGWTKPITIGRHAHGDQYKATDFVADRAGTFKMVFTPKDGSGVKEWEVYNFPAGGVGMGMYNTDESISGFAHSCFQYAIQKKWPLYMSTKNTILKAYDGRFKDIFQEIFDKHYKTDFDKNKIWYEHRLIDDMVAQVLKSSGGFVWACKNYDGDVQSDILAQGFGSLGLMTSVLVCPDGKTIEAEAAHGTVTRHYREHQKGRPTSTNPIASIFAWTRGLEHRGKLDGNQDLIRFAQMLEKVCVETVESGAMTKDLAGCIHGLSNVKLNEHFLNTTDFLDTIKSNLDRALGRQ

[4] = Metabolic stability test in liver microsomes (rat); format: in vitro ADME; conditions: percentage of remaining compound after incubation for 30 minutes vs 0 minute; 1 μM compound; 0.5 mg/mL liver microsomes; 37° C.
Protocol: as §1, §2, §3, §4, §5, §6

T1 sequence (O75874 whole entry R132H): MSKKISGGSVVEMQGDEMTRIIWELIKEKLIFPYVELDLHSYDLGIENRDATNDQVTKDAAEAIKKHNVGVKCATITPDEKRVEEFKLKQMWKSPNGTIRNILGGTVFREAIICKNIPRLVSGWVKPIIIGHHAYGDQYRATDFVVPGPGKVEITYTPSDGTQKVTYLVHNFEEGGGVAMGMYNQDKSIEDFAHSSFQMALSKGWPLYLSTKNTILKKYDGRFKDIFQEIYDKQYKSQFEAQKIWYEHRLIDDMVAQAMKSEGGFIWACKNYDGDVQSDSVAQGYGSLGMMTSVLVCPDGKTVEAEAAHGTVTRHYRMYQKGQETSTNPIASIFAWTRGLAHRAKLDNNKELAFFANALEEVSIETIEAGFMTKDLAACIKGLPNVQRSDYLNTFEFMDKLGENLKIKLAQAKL

Structure (SMILES)	IC50 [1] [µM]	Mouse liver microsome stability [2] [%]	IC50 [3] [µM]	Rat liver microsome stability [4] [%]
OC1C=C(c2nc(NC3CC(F)(F)C3)nc(NC3CC(F)(F)C3)n2)CCC1 (stereo not shown) [Compound 127]	0.203	28.7	0.064	49.8
CC(C)Nc1nc(N[C@H](C)C(F)(F)F)nc(C2=CC(O)CCC2)n1 (mixture of isomers) [Compound 124, 3-(4-(Isopropylamino)-6-(((R)-1,1,1-trifluoropropan-2-yl)amino)-1,3,5-triazin-2-yl)cyclohex-2-en-1-ol]	0.658	44.1	0.137	74.1
[2H]C1([2H])CCC(c2nc(NC3CC(F)(F)C3)nc(NC3CC(F)(F)C3)n2)=C(F)C1O (stereo not shown) [Compound 85]	0.207	64.0	0.035	78.1
[2H]C1([2H])CCC(c2nc(NC3CC(F)(F)C3)nc(NC3CC(F)(F)C3)n2)=C(F)C1([2H])O (racemic) [Compound 91]	–	70.5	0.058	86.6
C[C@@H](Nc1nc(N[C@H](C)C(F)(F)F)nc(C2=CC(O)CCC2)n1)C(F)(F)F (mixture of isomers) [Compound 126]	0.289	58.2	0.086	79.8
OC1C(F)=C(c2nc(NC3CC(F)(F)C3)nc(NC3CC(F)(F)C3)n2)CCC1(F)F (stereo not shown) [Compound 203]	0.733	91.3	0.098	92.1
C[C@@H](Nc1nc(N[C@@H]2CCC(F)(F)C2)nc(C2=C(F)C(O)C(F)CC2)n1)C(F)(F)F (single isomer, unassigned) [Compound 232]	0.07	76.3	0.04	86.6
[2H]C1(O)C(F)=C(c2nc(N[C@H](C)C(F)(F)F)nc(N[C@H](C)C(F)(F)F)n2)CCC1F (stereo partly drawn) [Compound 266, 3-(4,6-Bis(((R)-1,1,1-trifluoropropan-2-yl)amino)-1,3,5-triazin-2-yl)-2,6-difluorocyclohex-2-en-1-D-1-ol]	–	91.5	–	98.2
[2H]C1(O)C(F)=C(c2nc(N[C@H](C)C(F)(F)F)nc(N[C@H](C)C(F)(F)F)n2)CCC1(F)F (mixture of isomers) [Compound 211]	0.175	99.7	0.097	98.8
[2H]C1([2H])CCC(c2nc(N[C@@H](C)C(F)(F)F)nc(N[C@@H](C)C(F)(F)F)n2)=C(F)C1O (stereo partly shown) [Compound 87]	0.781	88.5	0.205	97.9
CC(C)Nc1nc(N[C@H](C)C(F)(F)F)nc(C2=C(F)C(O)C(F)CC2)n1 (single isomer, unassigned) [Compound 95]	0.317	80.1	0.043	74.8
C[C@@H](Nc1nc(NC2CCC2)nc(C2=CC(O)CCC2)n1)C(F)(F)F (mixture of isomers) [Compound 128]	–	15.9	0.092	34.0
[2H]C1(O)CCCC(c2nc(NC3CC(F)(F)C3)nc(NC3CC(F)(F)C3)n2)=C1F (stereo not shown) [Compound 19]	0.421	66.2	0.083	83.8
CC(C)Nc1nc(N[C@H](C)C(F)(F)F)nc(C2=C(F)C(O)CCC2)n1 (mixture of isomers) [Compound 1, 2-Fluoro-3-(4-(isopropylamino)-6-(((R)-1,1,1-trifluoropropan-2-yl)amino)-1,3,5-triazin-2-yl)cyclohex-2-en-1-ol]	–	83.5	0.097	73.8
[2H]C1([2H])CCC(c2nc(NC3CC(F)(F)C3)nc(N[C@@H](C)C(F)(F)F)n2)=C(F)C1([2H])O (mixture of isomers) [Compound 90]	–	80.9	–	82.4
[2H]C1(O)C(F)=C(c2nc(NC3CC3)nc(N[C@H](C)C(F)(F)F)n2)CCC1(F)F (mixture of isomers) [Compound 279]	9.43	–	0.17	–
C[C@H](Nc1nc(N[C@H](C)C(F)(F)F)nc(C2=C(F)C(O)CCC2)n1)c1ccccc1 (mixture of isomers) [Compound 157]	4.35	–	0.141	–
[2H]C1(O)C(F)=C(c2nc(NC3CC3)nc(N[C@@H](C)C(F)(F)F)n2)CCC1(F)F (mixture of isomers) [Compound 278]	> 10	–	0.148	–
CC(C)(C)ONc1nc(Nc2ccnc(F)c2)nc(C2=C(F)C(O)CCC2)n1 (stereo not shown) [Compound 73]	> 10	–	0.064	–
CCCNc1nc(N[C@H](C)C(F)(F)F)nc(C2=C(F)C(O)[C@H](F)CC2)n1 (single isomer, unassigned) [Compound 230]	> 10	–	0.658	–
CCCNc1nc(N[C@H](C)C(F)(F)F)nc(C2=C(F)C(O)[C@@H](F)CC2)n1 (stereo partly shown) [Compound 231]	1.53	–	0.037	–
C[C@@H](Nc1nc(NCC2CC2)nc(C2=C(F)C(O)C(F)(F)CC2)n1)C(F)(F)F (mixture of isomers) [Compound 209]	1.76	–	0.078	–
[2H]C1([2H])CCC(c2nc(N[C@H](C)C(F)(F)F)nc(N[C@H](C)C(F)(F)F)n2)=C(F)C1([2H])O (mixture of isomers) [Compound 83, 3-(4,6-bis(((R)-1,1,1-trifluoropropan-2-yl)amino)-1,3,5-triazin-2-yl)-2-fluorocyclohex-2-en-1,6,6-D3-1-ol]	–	83.7	–	96.6
CONc1nc(N[C@H](C)C(F)(F)F)nc(C2=C(F)C(O)C(F)(F)CC2)n1 (mixture of isomers) [Compound 297, 2,6,6-Trifluoro-3-(4-(methoxyamino)-6-(((R)-1,1,1-trifluoropropan-2-yl)amino)-1,3,5-triazin-2-yl)cyclohex-2-en-1-ol]	> 10	–	2.66	–
C[C@H](Nc1nc(N[C@H](C)C(F)(F)F)nc(C2=C(F)C(O)C(F)(F)CC2)n1)C(F)(F)F (stereo partly shown) [Compound 277]	1.03	–	0.156	–
